According to article PMC5418449, “Characterisation of CCT271850, a selective, oral and potent MPS1 inhibitor, used to directly measure in vivo MPS1 inhibition vs therapeutic efficacy” (British Journal of Cancer, 2017):

Experiments:
Design in all cases: 14-day clonogenic growth inhibition assay, human cancer cell line panel
Conditions in all cases: 14-day clonogenic assay; inhibitor; read-out: Table S1. IC50 of CCT271850 determined by MTT and clonogenic assays (CA). / All cell lines were tested at least 2 times. / 14-day CA
PATU-8902 = test system: PATU-8902
Procedure: (§1) To evaluate CCT271850 antiproliferation effects in a large panel of human cancer cell lines, 91 cell lines were treated for 72 h and 14 days at different compound concentrations in growth inhibition assays. The growth inhibition values as measured by IC50 are summarised in Table 2 and Supplementary Table S1. […] Cell lines from colon and head and neck cancers were among the most sensitive.

OVCAR4 = test system: OVCAR4
Procedure: as §1

TOV21G = test system: TOV21G
Procedure: as §1

EF021 = test system: EF021
Procedure: as §1

RMG1 = test system: RMG1
Procedure: as §1

015B = test system: 015B
Procedure: as §1

OVCAR3 = test system: OVCAR3
Procedure: as §1

O13 = test system: O13
Procedure: as §1

OAW28 = test system: OAW28
Procedure: as §1

CFPAC-1 = test system: CFPAC-1
Procedure: as §1

Miapaca-2 = test system: Miapaca-2
Procedure: as §1

Det562 = test system: Det562
Procedure: as §1

Kuramochi = test system: Kuramochi
Procedure: as §1

OAW42 = test system: OAW42
Procedure: as §1

PANC-1 = test system: PANC-1
Procedure: as §1

Suit-2 = test system: Suit-2
Procedure: as §1

IGROV1 = test system: IGROV1
Procedure: as §1

005B = test system: 005B
Procedure: as §1

EF027 = test system: EF027
Procedure: as §1

OVCAR8 = test system: OVCAR8
Procedure: as §1

011B = test system: 011B
Procedure: as §1

PT45 = test system: PT45
Procedure: as §1

PATU-8988S = test system: PATU-8988S
Procedure: as §1

PJ41 = test system: PJ41
Procedure: as §1

011A = test system: 011A
Procedure: as §1

CaoV3 = test system: CaoV3
Procedure: as §1

Lon-HN5 = test system: Lon-HN5
Procedure: as §1

SKOV3 = test system: SKOV3
Procedure: as §1

CAL27 = test system: CAL27
Procedure: as §1

SMOV2 = test system: SMOV2
Procedure: as §1

PJ34 = test system: PJ34
Procedure: as §1

KGN = test system: KGN
Procedure: as §1

PATU-8988T = test system: PATU-8988T
Procedure: as §1

TYK-Nu = test system: TYK-Nu
Procedure: as §1

HN3 = test system: HN3
Procedure: as §1

A2780 = test system: A2780
Procedure: as §1

SMILES: COc1cc(-c2cnn(C)c2)ccc1Nc1ncc2ccnc(N[C@@H](C)C(C)(C)C)c2n1 [34h, CCT271850]
- IC50 (PATU-8902): 28 nM
- IC50 (OVCAR4): 62 nM
- IC50 (TOV21G): 7.8 nM
- IC50 (EF021): 72 nM
- IC50 (RMG1): 42 nM
- IC50 (015B): 59 nM
- IC50 (OVCAR3): 99 nM
- IC50 (O13): 21 nM
- IC50 (OAW28): 61 nM
- IC50 (CFPAC-1): 63 nM
- IC50 (Miapaca-2): 68 nM
- IC50 (Det562): 46 nM
- IC50 (Kuramochi): 34 nM
- IC50 (OAW42): 57 nM
- IC50 (PANC-1): 74 nM
- IC50 (Suit-2): 87 nM
- IC50 (IGROV1): 48 nM
- IC50 (005B): 45 nM
- IC50 (EF027): 37 nM
- IC50 (OVCAR8): 101 nM
- IC50 (011B): 21 nM
- IC50 (PT45): 59 nM
- IC50 (PATU-8988S): 110 nM
- IC50 (PJ41): 0.8 nM
- IC50 (011A): 20 nM
- IC50 (CaoV3): 75 nM
- IC50 (Lon-HN5): 44 nM
- IC50 (SKOV3): 58 nM
- IC50 (CAL27): 4 nM
- IC50 (SMOV2): 14 nM
- IC50 (PJ34): 35 nM
- IC50 (KGN): 106 nM
- IC50 (PATU-8988T): 87 nM
- IC50 (TYK-Nu): 73 nM
- IC50 (HN3): 5.2 nM
- IC50 (A2780): 105 nM
